# Measured values from the supplement of paper PMC11208160.
# Experiment: recombinant barcode read abundance after kanamycin selection (control-corrected) (log10(CPM+1)); higher = more efficient recombination; sequences stand for … in AGTGCAGAGAAAATCGGCCAGTTTTCTCTGCCTGCAGTCCGCATGCCGT…AGATTTATGCAGCGGACTGCCTTTCTCCCAAAGTGATAAACCGGACAGTATCATGGACCGGTTTTCCCGGTAATCCGTATTTGCAAGGTTGGTTTCACT; site = the 11-nt target
# Method in brief: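 For this pooled screen, each oligo contained a promoter, a target, a barcode and the J23119-driven first 104 bases of the bridge RNA. Gibson cloning placed it into a vector supplying the remaining 73 bp and a T7-inducible recombinase, and the pool was co-electroporated into E. coli with a donor plasmid. Recombination efficiency is derived from barcode counts per million at recombinant junctions after averaging and control correction, and is expressed on a log scale as log10(CPM+1), with selection on chloramphenicol/ampicillin/kanamycin plus 0.1 mM IPTG against a chloramphenicol/ampicillin LB agar control.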
# 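Further: IS621 recombinase and bridge RNA in Escherichia coli cells.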
row,Sequence,recombinant barcode read abundance (log10)
1,GCCCGTCCTTGGGTTCTAACCTGTTGCCG (site GCCCGTCCTCG),1
2,GCCGAGTCTTGGGTTCTAACCTGTTGCCT (site GCCGAGTCTAG),1.03
3,GCCGAGTCTTGGGTTCTAACCTGTTGCCT (site GCCGAGTCTGT),0.142
4,GCCGAGTCTTGGGTTCTAACCTGTTGCTG (site GCCGAGTCTAA),0.11
5,GCCGAGTCTTGGGTTCTAACCTGTTGCTG (site GCCGAGTCTCA),0.564
6,GCCGAGTCTTGGGTTCTAACCTGTTGCTG (site GCCGAGTCTGA),0
7,GCCGAGTCTTGGGTTCTAACCTGTTGCTG (site GCCGAGTCTTA),0.219
8,GCCGGGTCTTGGGTTCTAACCTGTTGCTT (site GCAGGGTCTAA),1.26
9,GCCGGGTCTTGGGTTCTAACCTGTTGCTT (site GCCGGGTCTAA),0.812
10,GCCGGGTCTTGGGTTCTAACCTGTTGCTT (site GCGGGGTCTAA),0.092
11,GCCGGGTCTTGGGTTCTAACCTGTTGCTT (site GCTGGGTCTAA),0.337
12,GCCGGTCCTTGGGTTCTAACCTGTTGCCT (site GCAGGTCCTAG),0.522
13,GCCGGTCCTTGGGTTCTAACCTGTTGCCT (site GCCGGTCCTAG),0.549
14,GCCGGTCCTTGGGTTCTAACCTGTTGCCT (site GCGGGTCCTAG),0.451
15,GCCGGTCCTTGGGTTCTAACCTGTTGCCT (site GCTGGTCCTAG),0.14
16,GCCGTAGCTTGGGTTCTAACCTGTTGCCT (site GACGTAGCTAG),0.0542
17,GCCGTAGCTTGGGTTCTAACCTGTTGCCT (site GCCGTAGCTAG),0.0284
18,GCCGTAGCTTGGGTTCTAACCTGTTGCCT (site GGCGTAGCTAG),0.163
19,GCCGTAGCTTGGGTTCTAACCTGTTGCCT (site GTCGTAGCTAG),0.00812
20,GCCTGCCCTTGGGTTCTAACCTGTTGCCT (site GACTGCCCTAG),0.0828
21,GCCTGCCCTTGGGTTCTAACCTGTTGCCT (site GCCTGCCCTAG),0.892
22,GCCTGCCCTTGGGTTCTAACCTGTTGCCT (site GGCTGCCCTAG),0.0211
23,GCCTGCCCTTGGGTTCTAACCTGTTGCCT (site GTCTGCCCTAG),0.0318
24,GCGAACCCTTGGGTTCTAACCTGTTGCGG (site GCGAACCCTCC),0.967
25,GCGAACCCTTGGGTTCTAACCTGTTGCGG (site GCTAACCCTAC),0.0412
26,GCGACATCTTGGGTTCTAACCTGTTGCCT (site GCGACATCTAG),0.428

row,Sequence,recombinant barcode read abundance (log10)
1,GCGACATCTTGGGTTCTAACCTGTTGCCT (site TAAGATGCTCC),0.162
2,GCGCGCCCTTGGGTTCTAACCTGTTGCTG (site GCGCGCCCTCA),0.331
3,GCGCGCCCTTGGGTTCTAACCTGTTGCTG (site GCGCGCCCTCC),0.0616
4,GCGCGGCCTTGGGTTCTAACCTGTTGCCT (site ACGCGGCCTAG),0.56
5,GCGCGGCCTTGGGTTCTAACCTGTTGCCT (site CCGCGGCCTAG),0.0374
6,GCGCGGCCTTGGGTTCTAACCTGTTGCCT (site GCGCGGCCTAG),0.253
7,GCGCGGCCTTGGGTTCTAACCTGTTGCCT (site TCGCGGCCTAG),0.0177
8,GCGGATCCTTGGGTTCTAACCTGTTGCTA (site AGATTAGCTCG),0.159
9,GCGGATCCTTGGGTTCTAACCTGTTGCTA (site GCGGATCCTTA),1.9
10,GCGGCTCCTTGGGTTCTAACCTGTTGCAT (site GCGACTCCTAT),0.0805
11,GCGGCTCCTTGGGTTCTAACCTGTTGCAT (site GCGCCTCCTAT),0.0751
12,GCGGCTCCTTGGGTTCTAACCTGTTGCAT (site GCGGCTCCTAT),1.55
13,GCGGCTCCTTGGGTTCTAACCTGTTGCAT (site GCGTCTCCTAT),0.331
14,GCGGGTACTTGGGTTCTAACCTGTTGCCT (site GCGGGTACTAG),1.47
15,GCGGGTACTTGGGTTCTAACCTGTTGCCT (site GCGTGTACTAG),0.0951
16,GCGTCCACTTGGGTTCTAACCTGTTGCTA (site GCGTCCACTTA),0.0606
17,GCGTCCACTTGGGTTCTAACCTGTTGCTA (site GCGTGCCCTTA),0.299
18,GCGTCCTCTTGGGTTCTAACCTGTTGCTT (site GCGTCCTCTAA),0.636
19,GCGTCCTCTTGGGTTCTAACCTGTTGCTT (site TACCGTCCTCC),0.0776
20,GCGTCTACTTGGGTTCTAACCTGTTGCCT (site GCGTCTACTAG),0.169
21,GCGTCTACTTGGGTTCTAACCTGTTGCCT (site GCGTGGACTAG),0.051
22,GCGTGCCCTTGGGTTCTAACCTGTTGCTA (site GCGTCCACTTA),0.00781
23,GCGTGCCCTTGGGTTCTAACCTGTTGCTA (site GCGTGCCCTTA),0.356
24,GCGTGGACTTGGGTTCTAACCTGTTGCCT (site GCGTCTACTAG),0.235
25,GCGTGGACTTGGGTTCTAACCTGTTGCCT (site GCGTGGACTAG),1.61
26,GCGTTACCTTGGGTTCTAACCTGTTGCCT (site GCGTTACCTAG),0.97

row,Sequence,recombinant barcode read abundance (log10)
1,GCGTTACCTTGGGTTCTAACCTGTTGCCT (site GGGATACCTAG),0.0535
2,GCTAAGACTTGGGTTCTAACCTGTTGCTG (site GCTAAGACTCA),1.93
3,GCTAAGACTTGGGTTCTAACCTGTTGCTG (site GGTAAGACTCC),0.0258
4,GCTACCTCTTGGGTTCTAACCTGTTGCCT (site GCTACCTCTAG),1.6
5,GCTACCTCTTGGGTTCTAACCTGTTGCCT (site GTGACCTCTAG),0.254
6,GCTAGCCCTTGGGTTCTAACCTGTTGCGG (site GCGAGCCCTAC),0.0935
7,GCTAGCCCTTGGGTTCTAACCTGTTGCGG (site GCTAGCCCTCC),1.83
8,GCTAGGGCTTGGGTTCTAACCTGTTGCAG (site GCAAGGGCTCG),0.491
9,GCTAGGGCTTGGGTTCTAACCTGTTGCAG (site GCTAGGGCTCT),2.94
10,GCTCAGACTTGGGTTCTAACCTGTTGCCT (site GCTCAGACTAG),1.78
11,GCTCAGACTTGGGTTCTAACCTGTTGCCT (site GCTCAGCCTAG),0.0925
12,GCTCAGACTTGGGTTCTAACCTGTTGCCT (site GCTCAGGCTAG),0.132
13,GCTCAGACTTGGGTTCTAACCTGTTGCCT (site GCTCAGTCTAG),0.0442
14,GCTCCTACTTGGGTTCTAACCTGTTGCCT (site GATCCTACTAG),0.118
15,GCTCCTACTTGGGTTCTAACCTGTTGCCT (site GCTCCTACTAG),0.0272
16,GCTCCTACTTGGGTTCTAACCTGTTGCCT (site GGTCCTACTAG),0.48
17,GCTCCTACTTGGGTTCTAACCTGTTGCCT (site GTTCCTACTAG),0.108
18,GCTCGGGCTTGGGTTCTAACCTGTTGCGG (site ATGTCCTCTTG),0.0124
19,GCTCGGGCTTGGGTTCTAACCTGTTGCGG (site GCTCGGGCTCC),2.6
20,GCTCTAGCTTGGGTTCTAACCTGTTGCCT (site GCACAAGCTAG),0.0696
21,GCTCTAGCTTGGGTTCTAACCTGTTGCCT (site GCTCTAGCTAG),0.0295
22,GCTGAGACTTGGGTTCTAACCTGTTGCGT (site CTCTGTCCTCA),0.237
23,GCTGAGACTTGGGTTCTAACCTGTTGCGT (site GCTGAGACTAC),2.04
24,GCTGAGGCTTGGGTTCTAACCTGTTGCTG (site GCTGAGGCTCA),1.05
25,GCTGAGGCTTGGGTTCTAACCTGTTGCTG (site TCTGAGTCTCA),0.256
